Laboratory results reported in patent US12268700B2, “3-o-sulfo-galactosylceramide analogs as activators of type II NKT cells and uses thereof” (The United States of America, as represented by the …, priority 2018, dated 2025).
“Also recorded” adds a separate entry of the source.

Experiments:
[1] = tested on: XV19 type II NKT hybridoma; assay: In vitro stimulation of type II NKT hybridoma with lipid-loaded plate-coated CD1d monomers, IL-2 ELISA; assay type: cell-based, mouse; conditions: 24 h, 0.5 μg plate-coated CD1d monomers loaded with 4 μM sulfatide or analogues, 10 nM α-GalCer or β-GalCer
Protocol: The hybridoma XV19 was created by Cardell, S. et al. (J. Experimental Medicine, 182: 993-1004 (1995)) and was provided by Susanna Cardell.
(§1) CD monomers were loaded as described above. Flat bottom 96 well plates were coated overnight with 0.5 μg of CD1d monomers loaded with 4 μM of sulfatide or sulfatide-analogues, 10 nM of α-GalCer or with 10 ng/ml of anti-CD3 antibody (Biolegend, San Diego, CA) dissolved in PBS. Plates were then washed in PBS and complete medium. 50×10^3 hybridoma cells in 200 μl of complete medium were plated in presence or not of anti-CD1d blocking antibody 20H2.
(§2) Cells were cultured for 24 h at 37° C., 5% CO2. The production of IL-2 was measured by ELISA from the culture supernatant according to the recommendations of the manufacturer.
(§3) Therefore, well-described type I and type II NKT hybridoma cell lines were used in this experiment. The type I NKT hybridoma DN32.D3 expresses the murine semi-invariant TCR Vα14Jα18 associated with the Vβ8.2/Jβ2.4 chain (Brutkiewicz et al.) and is specific for α-GalCer.

[2] = tested on: DN32.D3 type I NKT hybridoma; assay: In vitro stimulation of type I NKT hybridoma with lipid-loaded plate-coated CD1d monomers, IL-2 ELISA; assay type: cell-based, murine; conditions: 24 h; for DN32 activation (IL-2 production): 0.5 μg plate-coated CD1d monomers loaded with 4 μM sulfatide or analogues, 10 nM α-GalCer or β-GalCer; for level of activation (amount of IL-2 produced) of DN32.D3, compared with reference lipids: CD1d monomers loaded with 4 μM lipid
Protocol: The hybridoma cell line DN32.D3 created by Brutkiewicz et al. (R. R. Brutkiewicz et al., J. Experimental Medicine, 183: 1913-1919 (1995)) that express the TCR semi-invariant α-chain Vα14Jα18 associated with the Vβ8.2Jβ2.4 chain was used.
as §1, §2, §3

[3] = tested on: CT26 (colon cancer) cells; assay: CT26 lung metastasis model, lung nodule count; assay type: in vivo, BALB/c mice; conditions: for number of lung nodules: same day 33 nmol sulfatide or analogues or 500 pmol α-GalCer i.p., counted 8 to 12 days, compared to vehicle, FIG. 5
Protocol: 200 μg of sulfatide of sulfatide-analogues dry powder were resuspended with 40 μl of PBS-Tween20-0.05% and warm at 37° C. for 10 min. Then, 697 μl of DPBS were added to obtain a concentration of 300 μg/ml of lipid. Mice received an i.p injection of 100 μl of sulfatide or analogue mix that is equivalent to […] of lipid. A solution of 500 μM of α-GalCer in DPBS-tween20-0.05% was thawed and sonicated at 60° C. for 2 min and a solution at 10 μM was prepared in DPBS. Mice were injected i.p. with […] (100 μl) of α-GalCer solution.
The CT26 cell were cultured in tumor medium: RPMI 1640 (Life technologies) supplemented with 10% heat inactivated fetal calf serum, 2 mM L-Glutamine, penicillin, streptomycin, 10 mM HEPES, 1/100 vol non-essential amino acids, and 1 mM sodium pyruvate 1/1000 of β-mercaptoethanol. Cells were harvested at 80-85% confluence, detached from plastic with trypsin treatment and resuspended at 5×10^6 cell/ml in DPBS. Mice were injected i.v in the tail vein with 0.5×10^6 CT26 cells (100 μl). The same day, mice were injected i.p. with […] of sulfatide or sulfatide analogues, or 10 nmol of α-GalCer.
WT BALB/c mice were injected intravenously (i.v.) with 0.5×10^6 CT26 (colon cancer) and treated the same day with 33 nmol of sulfatide or sulfatide-analogues or 500 pmol of α-GalCer injected i.p. Lung nodules were counted 8 to 12 days after tumor inoculation according to the results in the monitoring mice. n=10 from 2 independent experiments. The results are shown graphically in FIG. 5.
WT BALB/c mice were inoculated i.v. with 5×10^5 CT26 cells and treated i.p. with 30, 5 or 0.5 nmol of sulfatide or C24:2. The number of nodules in the lung was determined 8 to 12 days after injection.
WT BALB/c mice were injected i.v. with 0.5×10^6 CT26 (colon cancer cells) and treated the same day with […] of sulfatide or C24:2 or 500 pmol of α-GalCer injected i.p. Mice were injected i.p with 200 μg/ml of anti-IFNγ or rat IgG isotype control on day 0, day 1, day 2, day 3, and day 5. Lung nodules were counted 8 to 12 days after tumor inoculation according to the results in the monitoring mice. The results are shown in FIG. 8A (Rat IgG) and FIG. 8B (anti-IFN-γ).

[4] = tested on: CT26 (colon cancer) cells; conditions: murine model of lung metastasis; Ambrosino et al. 2007; cited from earlier work
[5] = tested on: lung mononuclear cells; assay: Ex vivo stimulation of lung mononuclear cells with lipid-pulsed BMDC, IL-13 ELISA; assay type: cell-based, BALB/c mice; conditions: BMDC pulsed with 33 μM lipid, 4 days, FIG. 3; for production of IL-13: ELISA of culture supernatant
Protocol: For the preparation of lung mononuclear cells, lungs were perfused with warm Dulbecco's Phosphate-Buffered Saline (DPBS) (Life Technologies, Frederick, MD) from the heart right ventricle. Single cell suspension was prepared with a Lung Dissociation Kit (Miltenyi Biotec, San Diego, CA) according to the manufacturer's protocol. Lung mononuclear cells (LMNC) were then purified from the cell suspension by a 40%/80% gradient of Percoll (Sigma-Aldrich, St-Louis, MO).
BMDC were prepared by collecting bone marrow cells from femurs and tibias of BALB/c mice in complete medium. Cells were suspended at the concentration of 0.2×10^6/ml in complete medium supplemented with 20 ng/ml of GM-CSF (Peprotech, Rocky Hill, NJ) and 2×10^6 cells were plated per Petri dish (Corning, Tewksbury, MA). Fresh medium supplemented with 20 ng/ml GM-CSF was added at day 3 and refreshed at day 6. At day 8 the cells were harvested, washed in complete medium and suspended at 0.4×10^6/ml in complete medium supplemented with 10 ng/ml of GM-CSF and 1 μg/ml of LPS (Sigma-Aldrich). 4×10^6 cells were plated per Petri dish for 24 h.
200 μg of sulfatide of sulfatide-analogues dry powder was dissolved in 100 μl of DPBS containing 0.5% Tween20 (PBS-Tween) (Avantor performance materials). BMDCs were washed and put at the concentration of 1×10^7/ml and incubated 3 h at 37° C. in presence of 30 μg/ml of sulfatide or sulfatide-analogues or the same volume of PBS-Tween as vehicle control. After washing, 100×10^3 pulsed BMDCs were cultured with 0.5×10^6 lung mononuclear cells in complete medium in flat-bottom 96 well plates for 4 days at 37° C., 5% CO2. When indicated, 10 μg/ml of anti-CD1d antibody (20H2, Harlan, Indianapolis, IN) was added. Supernatants were harvested, and IL-13 production was determined by ELISA according to the recommendations of the manufacturer (eBioscience).
Lung mononuclear cells from WT BALB/c mice were stimulated for 4 days in presence of BMDC (bone marrow derived dendritic cells) pulsed with 33 μM of sulfatide, vehicle control, or 33 μM of the sulfatide analogues pC24:1, pC24:2, or C24:2 in presence or absence of the anti-CD1d blocking antibody 20H2 to confirm the dependency of the IL-13 production on CD1d. The production of IL-13 was measured by ELISA in the culture supernatant. The results are shown in FIG. 3 (n=4, duplicates from 2 independent experiments.

[6] = tested on: IFN-γ; assay: Serum cytokine production after i.p. lipid injection (multiplex analysis); assay type: in vivo, mice; conditions: bled 3, 6, 12 and 24 h, FIG. 7
Protocol: Mice were injected i.p. with lipids and bled 3, 6, 12 and 24 h after injection. The cytokine production in the serum was determined by multiplex analysis.

Row | Molecule | XV19 activation (IL-2 production) [1] | DN32 activation (IL-2 production) [2] | number of lung nodules ([3]; 0.5×10^6 CT26 i.v.) | development of lung nodules (previously demonstrated) [4] | production of IL-13 [5] | production of IL-13 in presence of anti-CD1d blocking antibody 20H2 [5] | level of activation (amount of IL-2 produced) of DN32.D3, compared with reference lipids [2] | protection from tumor nodules with anti-IFN-γ versus rat IgG isotype control ([3]; 0.5×10^6 CT26 i.v., 30 μmol i.p., anti-IFNγ or rat IgG i.p. on days 0, 1, 2, 3, 5, FIGS. 8A-8B) | reduction of tumor nodules, dose study ([3]; 5×10^5 CT26 i.v., 30, 5 or 0.5 nmol i.p., result stated for 5 nmol, FIG. 6) | production of IFN-γ in the serum [6]
1 | CCCCCCCCCCCCCCCCCCCCCCCCCC(=O)N[C@@H](CO[C@H]1O[C@H](CO)[C@H](O)[C@H](O)[C@H]1O)[C@H](O)[C@H](O)CCCCCCCCCCCCCC [α-GalCer, α-galactosylceramide, reference compound] | not | activated | inhibited their development | abrogated it |  |  |  |  |  | 
2 | CCCCC/C=C\C/C=C\CCCCCCCCCCCCCC(=O)N[C@@H](CO[C@@H]1O[C@H](CO)[C@H](O)[C@H](OS(=O)(=O)O)[C@H]1O)[C@H](O)[C@H](O)CCCCCCCCCCCCCC [pC24:2, (2S,3S,4R)-1-(3-O-Sodiumsulfonyl-β-D-galactopyranosyloxy)-2-(N-15Z,18Z-tetracosadienoylamino)octadecan-3,4-diol] | activated XV19 | also activated DN32.D3 | did not have any effect |  | induced a high production of IL-13 | abrogated | lower than that induced by α-GalCer and in the same range as the one induced by β-GalCer |  |  | 
3 | (2S,3S,4R)-1-(3-O-Sodiumsulfonyl-β-D-galactopyranosyloxy)-2-(N-15Z-tetracosenoylamino)octadecane-3,4-diol [pC24:1] | activated XV19 | also activated DN32.D3 | did not have any effect |  | induced a high production of IL-13 | abrogated | lower than that induced by α-GalCer and in the same range as the one induced by β-GalCer |  |  | 
4 | β-galactosylceramide [β-GalCer, reference compound] | not | activated |  |  |  |  |  |  |  | 
5 | CCCCC/C=C\C/C=C\CCCCCCCCCCCCCC(=O)N[C@@H](CO[C@@H]1O[C@H](CO)[C@H](O)[C@H](OS(=O)(=O)O)[C@H]1O)[C@H](O)/C=C/CCCCCCCCCCCCC [C24:2, (2S,3R,4E)-1-(3-O-Sodiumsulfonyl-β-D-galactopyranosyloxy)-2-(N-15Z,18Z-tetracosadienoylamino)octadec-4-en-3-ol] | activated only XV19; also recorded: activated only type II NKT cells | not DN32.D3; also recorded: not type I | significantly reduced the number of lung nodules; also recorded: induced a significant reduction of the number of lung nodules |  | induced a high production of IL-13 | abrogated |  | dependent on IFN-γ | efficient for the reduction of tumor nodules | induced a high production of IFN-γ
6 | CCCCCCCC/C=C\CCCCCCCCCCCCCC(=O)N[C@@H](CO[C@H]1O[C@H](CO)[C@H](O)[C@H](OS(=O)(=O)O)[C@H]1O)[C@H](O)/C=C/CCCCCCCCCCCCC [Sulfatide C24:1, 3-o-sulfo-α-galactosylceramide, d18:1/C24:1, reference compound] | activated | not | increased the number of lung nodules | increased the development of nodules |  |  |  |  |  | 
